Results from patent publication US20260272895A1, “METHODS AND KITS FOR DELIVERY OF COMPOUNDS INTO CELLS” (Yale University, priority 2023, published 2026).
Entries after “also recorded” stand apart in the source; their conditions may differ.

Tests used:
SLC2A3 = test: Compound uptake in HEK293 expressing solute carrier family 2 member 3; assay type: cell-based
Procedure: HEK293 cells are cultured and seeded at ~60% confluency in 24-well plates and are transiently transfected with 250 ng of a candidate transporter and 1 μL transfection reagent (JetPRIME). After 2 days, cells are washed and novel fluorescent probes at different concentrations are added to the transport medium and incubated at 37° C., for at least 30 minutes. To terminate the transport, cells are washed with PBS and fixed with 4% paraformaldehyde. The colocalization of probe uptake and cells expressing the transporters is investigated by immunostaining the transporter which has a fused FLAG tag, using anti-FLAG 488. Before confocal imaging, nuclei are labeled with Hoechst 33342 and cells are mounted and imaged on a Leica SP8 confocal microscope.
For in vitro experiments, HEK293 cells were cultured and seeded in 24-well plates, reaching approximately 60% confluency. For transient transfection, 250 ng of a candidate transporter plasmid and 1 μL of transfection reagent (JetPRIME) were added to the cells. After a 2-day incubation period, the cells were washed, and novel fluorescent probes were introduced into the transport medium at various concentrations. The cells were then incubated at 37° C., for a minimum of 30 minutes to allow for uptake. To stop the transport process, the cells were washed with PBS and fixed using 4% paraformaldehyde. […]

[1] = test system: retinal endothelial cells; test: Retinal endothelial labeling after intravitreal / intraocular injection; assay type: in vivo, mouse; details: intravitreal/intraocular injection (eEDiTS 50 μM in FIG. 14D)
[2] = test system: brain endothelium / blood brain barrier; test: In vivo two-photon imaging of mouse brain cortex after intravenous administration
Procedure: (§1) Briefly, animals are anaesthetized via intraperitoneal injections of ketamine/xylazine or via inhaled isoflurane. A region of the skull (3×3 mm) is gently removed with a high-speed drill and the underlying dura is removed. A small glass coverslip is placed over the skull to allow long term optical access for in vivo imaging. Labeling with fluorescent dyes is performed either via intravenous injections or topically application to the cortical surface for 20 min prior to glass cover placement. After recovery, in vivo images are acquired using a two-photon microscope (Bruker Technologies) equipped with a multimodal (fixed wavelength 1040 nm and tunable wavelength) InSight X3 two-photon laser (Spectra Physics) and 20× water immersion objective (Zeiss 1.0N.A.). The two-photon laser is appropriately tuned to excite particular fluorescent dyes and proteins as needed. In selected cases, following in vivo imaging, mice will be sacrificed and perfused for follow up immunohistochemistry and high-resolution confocal imaging (Leica SP8) to further confirm colocalization of dyes and cells expressing particular transporters.
One-month-old wild-type mice were anesthetized using a ketamine/xylazine solution at doses of 100 mg/kg and 10 mg/kg, respectively. The fur around the skull area was shaved, and buprenex (0.1 mg per kg) and carprofen (5 mg per kg) were administered subcutaneously. Mice were kept on a heating pad at 37° C., and anesthesia was periodically monitored. The skin was treated with povidone-iodine solution, followed by cleaning with ethanol, and eye ointment was applied. A small skin section was excised to expose the skull. Thinning of the skull was performed in a circular area, followed by delicately lifting of the remaining skull without harm to the underlying brain. Within the circular region, the dura was gently removed using fine forceps, and a 4 mm cover glass was softly pressed onto the brain surface and affixed to the skull. Fluorescent dyes were applied either through intravenous injections or topically to the cortical surface for 20 minutes before placing the glass cover. A customized head bar was attached either by adhesive (for acute imaging) or permanently implanted (using dental cement, for chronic imaging) onto the skull. Mice were imaged under a two-photon microscope (Prairie Technologies) with a mode-locked MaiTai tunable laser (Spectra Physics). Imaging was performed with a 20× water immersion objective (Zeiss, 1.0NA). Images were captured at depths up to 300 μm from the pial surface using excitation wavelengths ranging from 750 to 950 nm as previously described. Mice undergoing chronic imaging received a recovery period on a heating pad post-surgery, and buprenex (0.1 mg per kg) and carprofen (5 mg per kg) were administered for 3 days. […]

brain cell types = test: In vivo two-photon imaging of mouse cortex after topical cortical administration of fluorophores
Procedure: as §1
One-month-old wild-type mice were anesthetized using a ketamine/xylazine solution at doses of 100 mg/kg and 10 mg/kg, respectively. The fur around the skull area was shaved, and buprenex (0.1 mg per kg) and carprofen (5 mg per kg) were administered subcutaneously. Mice were kept on a heating pad at 37° C., and anesthesia was periodically monitored. The skin was treated with povidone-iodine solution, followed by cleaning with ethanol, and eye ointment was applied. A small skin section was excised to expose the skull. Thinning of the skull was performed in a circular area, followed by delicately lifting of the remaining skull without harm to the underlying brain. Within the circular region, the dura was gently removed using fine forceps, and a 4 mm cover glass was softly pressed onto the brain surface and affixed to the skull. Fluorescent dyes were applied either through intravenous injections or topically to the cortical surface for 20 minutes before placing the glass cover. A customized head bar was attached either by adhesive (for acute imaging) or permanently implanted (using dental cement, for chronic imaging) onto the skull. Mice were imaged under a two-photon microscope (Prairie Technologies) with a mode-locked MaiTai tunable laser (Spectra Physics). Imaging was performed with a 20× water immersion objective (Zeiss, 1.0NA). Images were captured at depths up to 300 μm from the pial surface using excitation wavelengths ranging from 750 to 950 nm as previously described. Mice undergoing chronic imaging received a recovery period on a heating pad post-surgery, and buprenex (0.1 mg per kg) and carprofen (5 mg per kg) were administered for 3 days.
Batches of 10 compounds were applied through the craniotomy to the cortical surface before placing a cover glass window. No additional washings were performed, and the cover glass was placed, allowing up to 3 hours of imaging of the cortical surface with a two-photon microscope. Following imaging, the data were analyzed to identify potential patterns of cell-specific labeling. […] Positive batches underwent three additional rounds of imaging, with each batch being sequentially split, until a single compound displaying cell-type-specific labeling was identified. As these compounds were not initially purified, the labeling may have resulted from fluorescent byproducts of synthesis. Consequently, large-scale synthesis, purification and characterization (FIGS. 29A-29D) of the identified compounds were conducted. The purified compounds were subsequently retested using in vivo imaging to confirm cell type specificity.
It was reasoned that the best strategy to identify fluorophores with specific affinity to certain cell types and transport mechanisms would be by direct screening in the intact in vivo brain microenvironment. […]

[3] = Assessment of in vivo compound toxicity (fur regrowth, body weight); parameters: species or system mouse; details: intradermal injection (fur regrowth) and daily intraperitoneal injection for 5 days (body weight)
Procedure: To evaluate systemic toxicity, mouse weight was monitored daily, focusing on P20 mice in their active growth stage. For local toxicity assessment, the mouse fur was shaved to stimulate follicular stem cell division and subsequent hair regrowth. Compounds were injected intradermally on the right lower back quadrant and the left quadrant was used as a control. Hair regrowth was monitored for 12 days with serial photography followed by quantification using NIH Image J Plot Profile Plug-In, yielding pixel intensity profiles. Changes in pixel intensity where compared between injected (right quadrant) versus noninjected (left quadrant) by using the following formula:
(Noninjected intensity−Injected intensity)/Noninjected intensity×100%. (Eq. 1)

NIH3T3 cells = test: Assessment of pharmacological effects in vitro in NIH3T3 cells (tubulin staining, multinucleated cells); assay type: cell-based
Description: Confocal microscopy of the different treatment groups allowed us to visualize Hoechst dye-labeled nuclei to quantify the proportion of cells with multinucleated phenotype which is known to occur with Colchicine treatments.

O=S(=O)([O-])c1cc(S(=O)(=O)O)ccc1C1=c2cc3c4c(c2Oc2cc(Br)ccc21)CCC[N+]=4CCC3 [Compound 1, 2-(12-bromo-1,2,3,5,6,7-hexahydrochromeno[2,3-f]pyrido[3,2,1-ij]quinolin-4-ium-9-yl)-5-sulfobenzenesulfonate]
uptake on expression of SLC2A3 (SLC2A3): does not induce uptake
retinal endothelial labeling [1]: rapid and highly specific labeling of retinal vasculature
entry into non-endothelial cells ([2]; 2 hours post intravenous injection): does not enter non-endothelial cells; also recorded: does not enter other cells except for endothelial cells
brain endothelial labeling after intravenous administration ([2]; IV 50 microliters at 20 mg/ml, 10 min to 130 min post injection): marked uptake of the compound into the capillary endothelial wall; also recorded: robust brain endothelial labeling
interstitial space fluorescence / blood brain barrier crossing ([2]; IV, 10 min vs 130 min or 2 hours post injection): located in the brain interstitial space; also recorded: marked increase in the interstitial space fluorescence
punctate labeling in the endothelium ([2]; lower concentration IV in 120 μL of PBS, around 2 hours post injection): bright punctate labeling becomes apparent in the endothelium
Target (brain cell types; cell type taking up the compound in vivo (Table 1)): Endothelial
labeling of other (non-endothelial) cell types (brain cell types; topical application to cortex): only endothelial cells are labeled
endothelial cell labeling/uptake after topical application to the brain (brain cell types; topical cortical application): Highly specific labeling of endothelial cells within capillaries

COc1cc2c(c(OC)c1OC)-c1ccc(OC)c(=O)cc1C(NS(=O)(=O)c1ccc(-c3c4ccc(N(C)C)cc4[o+]c4cc(N(C)C)ccc34)c(S(=O)(=O)[O-])c1)CC2 (centres unmarked) [Compound 47, 2-(3,6-bis(dimethylamino)xanthylium-9-yl)-5-(N-(1,2,3,10-tetramethoxy-9-oxo-5,6,7,9-tetrahydrobenzo[a]heptalen-7-yl)sulfamoyl)benzenesulfonate]
local and systemic toxicity [3]: markedly reduced local and systemic toxicity
preservation of pharmacological properties after conjugation (NIH3T3 cells; NIH3T3 cells): retains its pharmacological properties
cell morphology / multinucleated cells (NIH3T3 cells; NIH3T3 cells (FIG. 17A)): changes in cell morphology and presence of multinucleated cells
pattern of α-tubulin immunofluorescence (NIH3T3 cells; NIH3T3 cells, 12 hours, varying concentrations (FIG. 17A)): diffuse labeling pattern
cellular labeling in cortex (brain cell types; topical cortical administration, 50 μM, wild type mice): labeling of endothelial processes (arrow) and cell bodies (arrowhead)
